In PubChem BioAssay AID308 (DTP/NCI, 2004):
Values joined by “and” are separate entries in the source; they are usually repeats but may differ in a detail not shown here. Identical values can stand only once. Inconclusive results and toxic doses are left out.

Tested on: BDF1 mice, L1210 6-MP/6-TG resistant leukemia ip, survival T/C
Experiment: NCI In Vivo Anticancer Drug Screen. Data for tumor model L1210 Leukemia resistant to 6-MP and 6-Thioguanine; NSC 755, NSC 752 (intraperitoneal) in B6D2F1 (BDF1) mice
Settings: endpoint: mean survival time, higher = longer survival
Procedure: The antitumor activity of compounds was measured in mice bearing transplantable tumors. Survival or tumor size were measured and the results are expressed as the measurement made in the treated group (T) divided by the measurement made in the vehicle treated control group (C). The tumor model used in this assay is L1210 Leukemia resistant to 6-MP and 6-Thioguanine; NSC 755, NSC 752 (intraperitoneal) in B6D2F1 (BDF1) mice

SMILES: CCOC(=O)NP(=O)(N1CC1(C)C)N1CC1(C)C (stereo unspecified)
- T/C (dose: 31.0 mg/kg/injection, schedule: Q01DX Z (ip), vehicle: saline): 113 % of control
- T/C (dose: 62.0 mg/kg/injection, schedule: Q01DX Z (ip), vehicle: saline): 160 % of control
- T/C (dose: 62.5 mg/kg/injection, schedule: Q01DX Z (ip), vehicle: saline): 228 % of control
- T/C (dose: 93.0 mg/kg/injection, schedule: Q01DX Z (ip), vehicle: saline): 182 % of control
- T/C (dose: 125.0 mg/kg/injection, schedule: Q01DX Z (ip), vehicle: saline): 160 % of control and 207 % of control
- T/C (dose: 187.0 mg/kg/injection, schedule: Q01DX Z (ip), vehicle: saline): 207 % of control

SMILES: NC(=O)N(CCCl)N=O
- T/C (dose: 0.47 mg/kg/injection, schedule: Q01DX Z (ip), vehicle: saline): 220 % of control
- T/C (dose: 0.93 mg/kg/injection, schedule: Q01DX Z (ip), vehicle: saline): 265 % of control
- T/C (dose: 1.25 mg/kg/injection, schedule: Q01DX Z (ip), vehicle: saline): 236 % of control
- T/C (dose: 1.87 mg/kg/injection, schedule: Q01DX Z (ip), vehicle: saline): 158 % of control
- T/C (dose: 5.0 mg/kg/injection, schedule: Q01DX Z (ip), vehicle: saline): 92 % of control

SMILES: CC(C)Cn1cnc2c(=S)nc(N)[nH]c21
- T/C (dose: 9.0 mg/kg/injection, schedule: Q01DX015 (ip), vehicle: other): 107 % of control
- T/C (dose: 14.0 mg/kg/injection, schedule: Q01DX015 (ip), vehicle: other): 106 % of control
- T/C (dose: 21.0 mg/kg/injection, schedule: Q01DX015 (ip), vehicle: other): 102 % of control
- T/C (dose: 36.0 mg/kg/injection, schedule: Q01DX015 (ip), vehicle: other): 95 % of control

SMILES: Nc1nc2n[nH]nc2c(=O)[nH]1
- T/C (dose: 12.5 mg/kg/injection, schedule: Q01DX Z (ip), vehicle: water): 100 % of control
- T/C (dose: 25.0 mg/kg/injection, schedule: Q01DX Z (ip), vehicle: water): 104 % of control
- T/C (dose: 50.0 mg/kg/injection, schedule: Q01DX Z (ip), vehicle: water): 98 % of control
- T/C (dose: 100.0 mg/kg/injection, schedule: Q01DX Z (ip), vehicle: water): 92 % of control
- T/C (dose: 200.0 mg/kg/injection, schedule: Q01DX Z (ip), vehicle: water): 95 % of control

SMILES: c1nc(SC2=NCCN2)c2[nH]cnc2n1
- T/C (dose: 6.25 mg/kg/injection, schedule: Q01DX Z (ip), vehicle: saline): 98 % of control
- T/C (dose: 12.5 mg/kg/injection, schedule: Q01DX Z (ip), vehicle: saline): 93 % of control

SMILES: Nc1ccc(C(=O)NO)cc1
- T/C (dose: 112.5 mg/kg/injection, schedule: Q01DX015 (ip), vehicle: carboxymethylcellulose (CMC)): 102 % of control
- T/C (dose: 225.0 mg/kg/injection, schedule: Q01DX015 (ip), vehicle: carboxymethylcellulose (CMC)): 91 % of control
- T/C (dose: 450.0 mg/kg/injection, schedule: Q01DX015 (ip), vehicle: carboxymethylcellulose (CMC)): 90 % of control
- T/C (dose: 900.0 mg/kg/injection, schedule: Q01DX015 (ip), vehicle: carboxymethylcellulose (CMC)): 97 % of control

SMILES: Nc1nc(F)nc2c1ncn2C1OC(CO)C(O)C1O (stereo unspecified)
- T/C (dose: 0.06 mg/kg/injection, schedule: Q01DX Z (ip), vehicle: saline): 109 % of control
- T/C (dose: 0.12 mg/kg/injection, schedule: Q01DX Z (ip), vehicle: saline): 104 % of control
- T/C (dose: 0.25 mg/kg/injection, schedule: Q01DX Z (ip), vehicle: saline): 106 % of control
- T/C (dose: 0.5 mg/kg/injection, schedule: Q01DX Z (ip), vehicle: saline): 101 % of control
- T/C (dose: 0.75 mg/kg/injection, schedule: Q01DX Z (ip), vehicle: saline): 119 % of control
- T/C (dose: 1.5 mg/kg/injection, schedule: Q01DX Z (ip), vehicle: saline): 107 % of control
- T/C (dose: 3.0 mg/kg/injection, schedule: Q01DX Z (ip), vehicle: saline): 115 % of control
- T/C (dose: 6.0 mg/kg/injection, schedule: Q01DX Z (ip), vehicle: saline): 90 % of control

SMILES: Cn1cnc2c(SCc3ccccc3)ncnc21
- T/C (dose: 12.5 mg/kg/injection, schedule: Q01DX Z (ip), vehicle: carboxymethylcellulose (CMC)): 100 % of control
- T/C (dose: 25.0 mg/kg/injection, schedule: Q01DX Z (ip), vehicle: carboxymethylcellulose (CMC)): 107 % of control
- T/C (dose: 50.0 mg/kg/injection, schedule: Q01DX Z (ip), vehicle: carboxymethylcellulose (CMC)): 100 % of control
- T/C (dose: 93.0 mg/kg/injection, schedule: Q01DX Z (ip), vehicle: carboxymethylcellulose (CMC)): 87 % of control
- T/C (dose: 100.0 mg/kg/injection, schedule: Q01DX Z (ip), vehicle: carboxymethylcellulose (CMC)): 102 % of control
- T/C (dose: 187.0 mg/kg/injection, schedule: Q01DX Z (ip), vehicle: carboxymethylcellulose (CMC)): 98 % of control
- T/C (dose: 250.0 mg/kg/injection, schedule: Q01DX Z (ip), vehicle: carboxymethylcellulose (CMC)): 92 % of control
